One compound from patent publication US6777190B1, “Crosstalk inhibitors and their uses” (Biosite, Inc., priority 1991, dated 2004) can be followed below.

The test concerns monoclonal antibodies to morphine (morp Ab). The experiment in a line: Crosstalk inhibitor test: colloidal gold ligand analogue conjugate binding at the morp Ab zone of a nylon membrane (color density DE*). The settings on record: 5 μl (1.1 μmol) inhibitor, Table 3 #6 vs #1.

Take `O=C(O)CCCCCNC(=O)C1CCC(CN2C(=O)CC(SCCC(=O)O)C2=O)CC1` (stereo not shown) [CCM-MPA]: the “decrease of the morphine response” value is listed as “about 30%”.
